Where no end group is shown, it is not given here.
Tests used:
[1] = cumulative food intake, lean mice (Model A), BioDaQ system; format: in vivo; conditions: lean male C57BL/6 mice, 1 mg/kg s.c., relative to vehicle, negative = reduction
Method: Cumulative food intake after 6 h was determined for the PYY analogs in either lean (Model A) or diet-induced obese (DIO) (Model B) C57BL/6 mice in a BioDaQ system for continuous monitoring of food intake (Research Diets Inc., New Brunswick, N.J.). […] Mice were placed singly into the BioDaQ cages and acclimatized for a minimum of 6 days and were allowed ad libitum access to food and water. Approximately 1 hour prior to lights-out, animals were dosed subcutaneously with either vehicle (20 mM Acetate buffer, pH 4.9 or 20% DMSO in water) or analogs dissolved in vehicle (1 mg/kg) (8 animals per group). Once all animals have been dosed, feeder gates were opened providing ad-libitum access to food. Continuous food intake was monitored and collected for 15 hours. […] P-values <0.05 were considered to indicate a significant difference between treatment groups.

[2] = chronic (41 days) efficacy study in DIO Long Evans rats: body weight, body composition, food intake; format: in vivo, Long Evans rat; conditions: DIO LE rats
Method: Rats were 17 weeks old at the start of the study. The rats were housed 1 per cage and given ad libitum access to TD.95217 chow and water, maintained on a 12 h light/dark cycle from 5:00 AM to 5:00 PM at 21° C. and 50% relative humidity and allowed to acclimate for at least 7 days prior to baseline measurements. Baseline fat mass and non-fat mass measurements were taken 3 days before the start of peptide infusion and on day 40 of treatment using a QMR instrument (Echo Medical Systems, Houston, Tex.). […] Each rat was implanted with two osmotic pumps subcutaneously in the scapula region containing vehicle or peptide according to their treatment group. Body weight and food intake were measured twice per week beginning three days before the 41-day treatment period. On day 41 of treatment, whole blood was collected by cardiac stick under isoflurane anesthesia. Plasma and serum were then prepared from the whole blood for serum chemistry analysis. All the data are presented as mean±SEM. The data were analyzed in either Prism (GraphPad Software, Inc., La Jolla, Calif.) or Excel using a Student's T-test to compare each group to the appropriate control group. P-values <0.05 were considered to indicate a significant difference between treatment groups.

[3] = chronic (26 days) efficacy study in diabetic ZDF rats: glucose and HbA1c; format: in vivo, Zucker Diabetic Fatty (ZDF) rat
Excerpt: Male ZDF rats were 12 weeks old at the start of the study (Charles River, Inc., Boston, Mass.). […] Baseline fat mass and non-fat mass measurements were taken 3 days before the start of peptide infusion and on day 26 of treatment using a QMR instrument (Echo Medical Systems, Houston, Tex.). […] P-values <0.05 were considered to indicate a significant difference between treatment groups.

[4] = Table 1, cumulative food intake after 6 h
[5] = s.c. infusion, used as study dose

Row | Compound | % reduction in food intake, model A ([1]; Table 2, 6 h time point) [%] | % reduction in food intake, model A [1, 4] [%] | further results
1 | PKPVAPGCDASPAELNRQYSDLRNYWNLVTRQRY-NH2 [Peptide 15] | −17 | – | –
2 | H-PKPEAPGCDASPEEWNRYYASLRKYLNWVTRQNY-NH2 [Peptide 1] | 5 | – | –
3 | PKPEAPLSKQLEEEAVRYYASLRHYLNLVTRQRY-NH2 [Peptide 21] | −2 | – | –
4 | CC(C)C[C@H](NC(=O)[C@H](CO)NC(=O)[C@H](C)NC(=O)[C@H](Cc1ccc(O)cc1)NC(=O)[C@H](Cc1ccc(O)cc1)NC(=O)[C@H](CCCNC(=N)N)NC(=O)[C@H](CC(N)=O)NC(=O)[C@H](CC(C)C)NC(=O)[C@H](CCC(=O)O)NC(=O)[C@H](CCC(=O)O)NC(=O)[C@@H]1CCCN1C(=O)[C@H](CO)NC(=O)[C@H](C)NC(=O)[C@H](CC(=O)O)NC(=O)[C@H](CCCCN)NC(=O)CNC(=O)[C@@H]1CCCN1C(=O)[C@H](C)NC(=O)[C@H](CCC(=O)O)NC(=O)[C@@H]1CCCN1C(=O)[C@H](CCCCN)NC(=O)[C@@H]1CCCN1)C(=O)N[C@@H](CCCNC(=N)N)C(=O)N[C@@H](CCCCN)C(=O)N[C@@H](Cc1ccc(O)cc1)C(=O)N[C@@H](CC(C)C)C(=O)N[C@@H](CC(N)=O)C(=O)N[C@@H](Cc1c[nH]c2ccccc12)C(=O)N[C@@H](CC(C)C)C(=O)N[C@H](C(=O)N[C@@H](CCCNC(=N)N)C(=O)N[C@@H](CCC(N)=O)C(=O)N[C@@H](CCCNC(=N)N)C(=O)N[C@@H](Cc1ccc(O)cc1)C(N)=O)[C@@H](C)O [Example 2] | – | −50 | –
5 | exendin-4 | – | – | ED50 for weight loss [2, 5]: 0.15 mg/kg/day; ED20 for HbA1c lowering [3, 5]: 0.0055 mg/kg/day
6 | H-PEPEHPGCDASPEDQNKYHASLRKYLNWVTRQRY-NH2 [Peptide 10] | −21 | – | –
7 | CC[C@H](C)[C@H](N)C(=O)N[C@@H](CCCCN)C(=O)N1CCC[C@H]1C(=O)N1CCC[C@H]1C(=O)N[C@@H](Cc1ccc(O)cc1)C(=O)N1CCC[C@H]1C(=O)NCC(=O)N[C@@H](CS)C(=O)N[C@@H](CC(=O)O)C(=O)N[C@@H](C)C(=O)N[C@@H](CO)C(=O)N1CCC[C@H]1C(=O)N[C@@H](CCC(=O)O)C(=O)N[C@@H](CCC(=O)O)C(=O)N[C@@H](CCC(N)=O)C(=O)N[C@@H](CC(N)=O)C(=O)N[C@@H](CCCCN)C(=O)N[C@@H](Cc1ccc(O)cc1)C(=O)N[C@@H](Cc1ccc(O)cc1)C(=O)N[C@@H](C)C(=O)N[C@@H](CO)C(=O)N[C@@H](CC(C)C)C(=O)N[C@@H](CCCNC(=N)N)C(=O)N[C@@H](C)C(=O)N[C@@H](Cc1ccc(O)cc1)C(=O)N[C@@H](Cc1c[nH]c2ccccc12)C(=O)N[C@@H](CC(N)=O)C(=O)N[C@@H](CC(C)C)C(=O)N[C@H](C(=O)N[C@H](C(=O)N[C@@H](CCCNC(=N)N)C(=O)N[C@@H](CCC(N)=O)C(=O)N[C@@H](CCCNC(=N)N)C(=O)N[C@@H](Cc1ccc(O)cc1)C(N)=O)[C@@H](C)O)C(C)C [Peptide 8] | −19 | – | –
8 | CC(C)C[C@H](NC(=O)[C@H](CC(=O)O)NC(=O)[C@H](C)NC(=O)[C@H](Cc1ccc(O)cc1)NC(=O)[C@H](Cc1ccc(O)cc1)NC(=O)[C@H](CCCNC(=N)N)NC(=O)[C@H](CC(N)=O)NC(=O)[C@H](Cc1c[nH]c2ccccc12)NC(=O)[C@H](CCC(=O)O)NC(=O)[C@H](CCC(=O)O)NC(=O)[C@@H]1CCCN1C(=O)[C@H](CO)NC(=O)[C@H](C)NC(=O)[C@H](CC(=O)O)NC(=O)[C@H](CCCCN)NC(=O)CNC(=O)[C@@H]1CCCN1C(=O)[C@H](C)NC(=O)[C@H](CCC(=O)O)NC(=O)[C@@H]1CCCN1C(=O)[C@H](CCCCN)NC(=O)[C@@H]1CCCN1)C(=O)N[C@@H](CCCNC(=N)N)C(=O)N[C@@H](CCCCN)C(=O)N[C@@H](Cc1ccc(O)cc1)C(=O)N[C@@H](CC(C)C)C(=O)N[C@@H](CC(N)=O)C(=O)N[C@@H](Cc1c[nH]c2ccccc12)C(=O)N[C@H](C(=O)N[C@H](C(=O)N[C@@H](CCCNC(=N)N)C(=O)N[C@@H](CCC(N)=O)C(=O)N[C@@H](CCCNC(=N)N)C(=O)N[C@@H](Cc1ccc(O)cc1)C(N)=O)[C@@H](C)O)C(C)C [Example 8] | – | −74 | –
9 | H-PQPESPEGNASPEDWACYHAAVRHYVNLITRQRY-NH2 [Peptide 18] | −17 | – | –
10 | PYY(3-36)NH2 | – | – | weight loss vs. vehicle ([2]; 40 days, s.c. osmotic pumps, ED50 doses): −1.3%; inhibition of cumulative food intake ([2]; chronic infusion, vs. vehicle control): −0.7%; ΔΔGlucose ([3]; 26 days, change from baseline and vehicle control, ED20 doses): −33.1 ± 17^ mg/dL
11 | CC(C)C[C@H](NC(=O)[C@H](CO)NC(=O)[C@H](C)NC(=O)[C@H](Cc1ccc(O)cc1)NC(=O)[C@H](Cc1ccc(O)cc1)NC(=O)[C@H](CCCNC(=N)N)NC(=O)[C@H](CC(N)=O)NC(=O)[C@H](CC(C)C)NC(=O)[C@H](CCC(=O)O)NC(=O)[C@H](CCC(=O)O)NC(=O)[C@@H]1CCCN1C(=O)[C@H](CO)NC(=O)[C@H](C)NC(=O)[C@H](CC(=O)O)NC(=O)[C@H](CCCCN)NC(=O)CNC(=O)[C@@H]1CCCN1C(=O)[C@H](C)NC(=O)[C@H](CCC(=O)O)NC(=O)[C@@H]1CCCN1C(=O)[C@H](CCCCN)NC(=O)[C@@H]1CCCN1)C(=O)N[C@@H](CCCNC(=N)N)C(=O)N[C@@H](CCCCN)C(=O)N[C@@H](Cc1ccc(O)cc1)C(=O)N[C@@H](CC(C)C)C(=O)N[C@@H](CC(N)=O)C(=O)N[C@@H](Cc1c[nH]c2ccccc12)C(=O)N[C@H](C(=O)N[C@H](C(=O)N[C@@H](CCCNC(=N)N)C(=O)N[C@@H](CCC(N)=O)C(=O)N[C@@H](CCCNC(=N)N)C(=O)N[C@@H](Cc1ccc(O)cc1)C(N)=O)[C@@H](C)O)C(C)C [Example 31] | – | −59 | –
12 | H-PKPEAPGEDASPKEWNRYYASLRKYLNWVTRQRY-NH2 [Peptide 3] | −30 | – | –
13 | H-IKPEAPLSKQLEEEAVRYYASLRHYLNLVTRQRY-NH2 [Peptide 2] | −12 | – | –
14 | CC(C)C[C@H](NC(=O)[C@H](CO)NC(=O)[C@H](C)NC(=O)[C@H](Cc1ccc(O)cc1)NC(=O)[C@H](Cc1ccc(O)cc1)NC(=O)[C@H](CCCNC(=N)N)NC(=O)[C@H](CC(N)=O)NC(=O)[C@H](Cc1c[nH]c2ccccc12)NC(=O)[C@H](CCC(=O)O)NC(=O)[C@H](CCC(=O)O)NC(=O)[C@@H]1CCCN1C(=O)[C@H](CO)NC(=O)[C@H](C)NC(=O)[C@H](CC(=O)O)NC(=O)[C@H](CCCCN)NC(=O)CNC(=O)[C@@H]1CCCN1C(=O)[C@H](C)NC(=O)[C@H](CCC(=O)O)NC(=O)[C@@H]1CCCN1C(=O)[C@H](CCCCN)NC(=O)[C@@H]1CCCN1)C(=O)N[C@@H](CCCNC(=N)N)C(=O)N[C@@H](CCCCN)C(=O)N[C@@H](Cc1ccc(O)cc1)C(=O)N[C@@H](CC(C)C)C(=O)N[C@@H](CC(N)=O)C(=O)N[C@@H](Cc1c[nH]c2ccccc12)C(=O)N[C@@H](CC(C)C)C(=O)N[C@H](C(=O)N[C@@H](CCCNC(=N)N)C(=O)N[C@@H](CCC(N)=O)C(=O)N[C@@H](CCCNC(=N)N)C(=O)N[C@@H](Cc1ccc(O)cc1)C(N)=O)[C@@H](C)O [Example 6] | – | −88 | –
15 | CC(C)C[C@H](NC(=O)[C@H](CO)NC(=O)[C@H](C)NC(=O)[C@H](Cc1ccc(O)cc1)NC(=O)[C@H](Cc1ccc(O)cc1)NC(=O)[C@H](CCCNC(=N)N)NC(=O)[C@H](CC(N)=O)NC(=O)[C@H](Cc1c[nH]c2ccccc12)NC(=O)[C@H](CCC(=O)O)NC(=O)[C@H](CCC(=O)O)NC(=O)[C@@H]1CCCN1C(=O)[C@H](CO)NC(=O)[C@H](C)NC(=O)[C@H](CC(=O)O)NC(=O)[C@H](CCCCN)NC(=O)CNC(=O)[C@@H]1CCCN1C(=O)[C@H](C)NC(=O)[C@H](CCC(=O)O)NC(=O)[C@@H]1CCCN1C(=O)[C@H](CCCCN)NC(=O)[C@@H]1CCCN1)C(=O)N[C@@H](CCCNC(=N)N)C(=O)N[C@@H](CCCCN)C(=O)N[C@@H](Cc1ccc(O)cc1)C(=O)N[C@@H](CC(C)C)C(=O)N[C@@H](CC(N)=O)C(=O)N[C@@H](Cc1c[nH]c2ccccc12)C(=O)N[C@H](C(=O)N[C@H](C(=O)N[C@@H](CCCNC(=N)N)C(=O)N[C@@H](CCC(N)=O)C(=O)N[C@@H](CCCNC(=N)N)C(=O)N[C@@H](Cc1ccc(O)cc1)C(N)=O)[C@@H](C)O)C(C)C [Example 10] | – | −88 | –
16 | H-PKPEAPGCDASPEEWNRYYASLRKYLNWVTRQHY-NH2 [Peptide 14] | 24 | – | –

From US9441023B2, “Peptide YY analogs” (GlaxoSmithKline Intellectual Property Development Limited, priority 2013, dated 2016)
